We go through 29 molecules from patent publication US10829501B2 (BRISTOL-MYERS SQUIBB COMPANY, priority 2016, dated 2020).

Structures can show the parent of a compound that is named as a salt.

One test deals with ROCK2 (Homo sapiens, UniProt O75116). The test can be described thus: ROCK2 kinase inhibition assay (LABCHIP 3000 Reader, FITC peptide substrate).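 Also: rho kinase reaction read by separating phosphorylated from unphosphorylated peptide on chip, with inhibition of kinase activity computed per concentration across a dose-response series.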
Chain of ROCK2 (O75116 whole entry, species assumed): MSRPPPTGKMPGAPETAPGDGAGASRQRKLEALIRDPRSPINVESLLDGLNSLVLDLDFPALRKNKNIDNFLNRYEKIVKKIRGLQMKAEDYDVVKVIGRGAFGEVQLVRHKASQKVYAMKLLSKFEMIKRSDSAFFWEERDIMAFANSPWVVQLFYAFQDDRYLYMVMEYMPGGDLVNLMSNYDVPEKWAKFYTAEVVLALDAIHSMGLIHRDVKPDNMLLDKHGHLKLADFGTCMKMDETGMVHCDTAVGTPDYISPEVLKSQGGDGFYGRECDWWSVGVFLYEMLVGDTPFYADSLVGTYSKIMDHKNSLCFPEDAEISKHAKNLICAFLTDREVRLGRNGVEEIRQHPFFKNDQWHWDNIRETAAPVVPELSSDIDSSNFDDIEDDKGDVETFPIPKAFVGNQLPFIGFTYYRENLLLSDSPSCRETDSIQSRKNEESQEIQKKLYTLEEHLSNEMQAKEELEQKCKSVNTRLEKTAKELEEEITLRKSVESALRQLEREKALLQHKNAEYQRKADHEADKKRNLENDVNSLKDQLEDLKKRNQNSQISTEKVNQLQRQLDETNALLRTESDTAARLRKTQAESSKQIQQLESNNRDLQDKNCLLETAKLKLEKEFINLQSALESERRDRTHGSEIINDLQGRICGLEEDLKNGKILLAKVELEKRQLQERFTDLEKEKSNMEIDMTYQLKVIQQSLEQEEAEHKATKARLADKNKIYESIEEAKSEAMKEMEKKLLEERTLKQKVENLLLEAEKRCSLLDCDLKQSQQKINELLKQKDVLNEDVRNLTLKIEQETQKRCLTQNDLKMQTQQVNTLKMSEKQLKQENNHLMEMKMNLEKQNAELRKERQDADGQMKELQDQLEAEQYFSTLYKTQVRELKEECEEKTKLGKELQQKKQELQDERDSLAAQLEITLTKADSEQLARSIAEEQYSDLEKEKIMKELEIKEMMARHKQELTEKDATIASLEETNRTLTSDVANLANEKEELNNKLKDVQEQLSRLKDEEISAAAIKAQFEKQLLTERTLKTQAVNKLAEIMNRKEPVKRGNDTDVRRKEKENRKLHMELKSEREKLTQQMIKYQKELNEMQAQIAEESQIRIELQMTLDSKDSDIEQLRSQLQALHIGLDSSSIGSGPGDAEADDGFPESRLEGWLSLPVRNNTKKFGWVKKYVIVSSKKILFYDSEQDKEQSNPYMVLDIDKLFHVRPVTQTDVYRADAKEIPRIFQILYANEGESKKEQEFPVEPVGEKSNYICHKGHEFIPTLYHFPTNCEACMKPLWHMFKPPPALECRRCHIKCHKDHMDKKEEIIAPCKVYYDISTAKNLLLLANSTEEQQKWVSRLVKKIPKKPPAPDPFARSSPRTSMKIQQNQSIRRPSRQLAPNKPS
Conditions: not given
`Cc1ccc(C(N)=O)c(OC2CC3(CC(NC(=O)c4cnn5c(C6CC6)c(OCC(C)(C)O)ccc45)C3)C2)c1` (centres unmarked) [Example 217, N-(6-(2-carbamoyl-5-methylphenoxy)spiro[3.3]heptan-2-yl)-7-cyclopropyl-6-(2-hydroxy-2-methylpropoxy)pyrazolo[1,5-a]pyridine-3-carboxamide] showed an IC50 of less than 5 nM.

`CC(C)(O)COc1ccn2c(C(=O)N[C@H]3CC4(C3)C[C@H](Oc3ncccc3C(N)=O)C4)cnc2c1C1CC1` (stereo partly drawn) [Example 65, N-((aR)-6-((3-carbamoylpyridin-2-yl)oxy)spiro[3.3]heptan-2-yl)-8-cyclopropyl-7-(2-hydroxy-2-methylpropoxy) imidazo[1,2-a]pyridine-3-carboxamide, trifluoroacetate] displayed a concentration for half-maximal inhibition (IC50) of less than 5 nM.

The molecule `CC(C)(O)COc1ccc2c(C(=O)NC3CC4(C3)CC(Oc3cc(Cl)ccc3C(N)=O)C4)cnn2c1` (centres unmarked) [Example 220, N-(6-(2-carbamoyl-5-chlorophenoxy)spiro[3.3]heptan-2-yl)-6-(2-hydroxy-2-methylpropoxy)pyrazolo[1,5-a]pyridine-3-carboxamide] registered an IC50 of 5 to 50 nM.

`Cn1nc(C(=O)N[C@H]2CC3(C2)C[C@H](Oc2ncccc2C(N)=O)C3)c2ccc(F)cc21` (stereo partly drawn) [Example 173, N-((aR)-6-((3-carbamoylpyridin-2-yl)oxy)spiro[3.3]heptan-2-yl)-6-fluoro-1-methyl-1H-indazole-3-carboxamide, trifluoroacetate] displayed a concentration for half-maximal inhibition (IC50) of 5 to 50 nM.

In turn, `CC(C)(O)COc1ccc2c(C(=O)NC3CC4(C3)CC(Oc3cc(-c5cc(F)c(F)c(F)c5)ccc3C(N)=O)C4)cnn2c1` (centres unmarked) [Example 283, N-(6-((4-carbamoyl-3′,4′,5′-trifluoro-[1,1′-biphenyl]-3-yl)oxy)spiro[3.3]heptan-2-yl)-6-(2-hydroxy-2-methylpropoxy)pyrazolo[1,5-a]pyridine-3-carboxamide] displayed an IC50 of 50 to 250 nM.

For `CC(C)(O)COc1ccc2c(C(=O)NC3CC4(C3)CC(Oc3cc(-c5cccc(CN)c5)ccc3C(N)=O)C4)cnn2c1` (centres unmarked) [Example 252, N-(6-((3′-(aminomethyl)-4-carbamoyl-[1,1′-biphenyl]-3-yl)oxy)spiro[3.3]heptan-2-yl)-6-(2-hydroxy-2-methylpropoxy)pyrazolo[1,5-a]pyridine-3-carboxamide], the IC50 is 5 to 50 nM.

In turn, `Cc1nn(-c2cccc(-c3ccc(C(N)=O)c(OC4CC5(CC(NC(=O)c6cnn7cc(OCC(C)(C)O)ccc67)C5)C4)c3)c2)c(N)c1C#N` (centres unmarked) [Example 246, N-(6-((3′-(5-amino-4-cyano-3-methyl-1H-pyrazol-1-yl)-4-carbamoyl-[1,1′-biphenyl]-3-yl)oxy)spiro[3.3]heptan-2-yl)-6-(2-hydroxy-2-methylpropoxy)pyrazolo[1,5-a]pyridine-3-carboxamide] gave an IC50 of 5 to 50 nM.

In turn, `[H][C@]1(Oc2ncccc2C(N)=O)C[C@@]2(C[C@H](NC(=O)c3cnn4c(CCC(F)(F)F)c(OCC(C)(C)O)ccc34)C2)C1` (stereo partly drawn) [Example 43, N-((aR)-6-((3-carbamoylpyridin-2-yl)oxy)spiro[3.3]heptan-2-yl)-6-(2-hydroxy-2-methylpropoxy)-7-(3,3,3-trifluoropropyl)pyrazolo[1,5-a]pyridine-3-carboxamide] returned an IC50 of less than 5 nM.

`Cc1c(C(=O)NC2CC3(C2)CC(Oc2ncccc2C(N)=O)C3)cnn1-c1cccc(C#N)c1` (centres unmarked) [Example 399] registered a half-maximal inhibitory concentration (IC50) of 50 to 250 nM.

`Cc1nc(C(=O)NC2CC3(C2)CC(Oc2ncccc2C(N)=O)C3)c(C)n1-c1ccccc1` (centres unmarked) [Example 392] came in with a concentration for half-maximal inhibition (IC50) of 50 to 250 nM.

`NC(=O)c1cccnc1O[C@H]1CC2(C[C@H](NC(=O)c3cnc4cc(N5CCOCC5)ccn34)C2)C1` (stereo partly drawn) [Example 356, N-((aR)-6-((3-carbamoylpyridin-2-yl)oxy)spiro[3.3]heptan-2-yl)-7-morpholinoimidazo[1,2-a]pyridine-3-carboxamide] showed an IC50 of 5 to 50 nM.

On to `NC(=O)c1cccnc1O[C@H]1CC2(C[C@H](NC(=O)c3cc4ccccc4cn3)C2)C1` (stereo partly drawn) [Example 159, N-((aR)-6-((3-carbamoylpyridin-2-yl)oxy)spiro[3.3]heptan-2-yl)isoquinoline-3-carboxamide], for which the 50% inhibitory concentration (IC50) was in the range of 50 to 250 nM.

For `NC(=O)c1cccnc1O[C@H]1CC2(C[C@H](NC(=O)c3cnn4c(C5CC5)c(OC5COC5)ccc34)C2)C1` (stereo partly drawn) [Example 343, N-((aR)-6-((3-carbamoylpyridin-2-yl)oxy)spiro[3.3]heptan-2-yl)-7-cyclopropyl-6-(oxetan-3-yloxy)pyrazolo[1,5-a]pyridine-3-carboxamide], the half-maximal inhibitory concentration (IC50) lay within 5 to 50 nM.

`Cn1ccc(-c2cc(C#N)cc(C(=O)N[C@H]3CC4(C3)C[C@H](Oc3ncccc3C(N)=O)C4)c2)cc1=O` (stereo partly drawn) [Example 192, 2-(((aR)-6-(3-cyano-5-(1-methyl-2-oxo-1,2-dihydropyridin-4-yl)benzamido)spiro[3.3]heptan-2-yl)oxy)nicotinamide, trifluoroacetate] showed an IC50 of 5 to 50 nM.

The molecule `CC(F)(F)COc1ccc2c(C(=O)N[C@H]3CC4(C3)C[C@H](Oc3ncccc3C(N)=O)C4)cnn2c1` (stereo partly drawn) [Example 308, N-((aR)-6-((3-carbamoylpyridin-2-yl)oxy)spiro[3.3]heptan-2-yl)-6-(2,2-difluoropropoxy)pyrazolo[1,5-a]pyridine-3-carboxamide] registered an IC50 of less than 5 nM.

As for `Cc1nn(C)cc1-c1cc(C#N)cc(C(=O)N[C@H]2CC3(C2)C[C@H](Oc2ncccc2C(N)=O)C3)c1` (stereo partly drawn) [Example 182, 2-(((aR)-6-(3-cyano-5-(1,3-dimethyl-1H-pyrazol-4-yl)benzamido)spiro [3.3]heptan-2-yl)oxy)nicotinamide, trifluoroacetate], the IC50 was less than 5 nM.

For `Cn1nc(-c2ccccc2)cc1C(=O)N[C@H]1CC2(C1)C[C@H](Oc1ncccc1C(N)=O)C2` (stereo partly drawn) [Example 89, 2-((aR)-6-(1-methyl-3-phenyl-1H-pyrazole-5-carboxamido)spiro[3.3]heptan-2-yl)oxy) nicotinamide, trifluoroacetate], the IC50 fell in the range of 250 to 2500 nM.

`[H][C@]1(Oc2ncccc2C(N)=O)C[C@@]2(C[C@H](NC(=O)c3cccc(-c4cccc(S(C)(=O)=O)c4)c3)C2)C1` (some centres unmarked) [Example 55]: the 50% inhibitory concentration (IC50) fell in the range of 50 to 250 nM.

As to `Cn1nc(C(=O)N[C@H]2CC3(C2)C[C@H](Oc2ncccc2C(N)=O)C3)cc1OCCC(F)(F)F` (some centres unmarked) [Example 91, 2-((aR 6-(1-methyl-5-(3,3,3-trifluoropropoxy)-1H-pyrazole-3-carboxamido)spiro[3.3]heptan-2-yl)oxy) nicotinamide, trifluoroacetate], the half-inhibitory concentration (IC50) lay in the range of 50 to 250 nM.

In turn, `NC(=O)c1cccnc1O[C@H]1CC2(C[C@H](NC(=O)c3cnn4cc(OCC(O)(C(F)(F)F)C(F)(F)F)ccc34)C2)C1` (stereo partly drawn) [Example 315, N-((aR)-6-((3-carbamoylpyridin-2-yl)oxy)spiro[3.3]heptan-2-yl)-6-(3,3,3-trifluoro-2-hydroxy-2-(trifluoromethyl)propoxy)pyrazolo[1,5-a]pyridine-3-carboxamide] gave a 50% inhibitory concentration (IC50) of 5 to 50 nM.

As for `NC(=O)c1cccnc1O[C@H]1CC2(C[C@H](NC(=O)c3ccc(Cl)c(S(N)(=O)=O)c3)C2)C1` (stereo partly drawn) [Example 152, 2-(((aR)-6-(4-chloro-3-sulfamoylbenzamido)spiro[3.3]heptan-2-yl)oxy) nicotinamide, trifluoroacetate], the IC50 fell in the range of 5 to 50 nM.

`Cc1c(OCC(C)(C)O)ccc2c(C(=O)N[C@H]3CC4(C3)C[C@H](Oc3ncccc3C(N)=O)C4)cnn12` (stereo partly drawn) [Example 321, N-((aR)-6-((3-carbamoylpyridin-2-yl)oxy)spiro[3.3]heptan-2-yl)-6-(2-hydroxy-2-methylpropoxy)-7-methylpyrazolo[1,5-a]pyridine-3-carboxamide]: the concentration for half-maximal inhibition (IC50) lay within 5 to 50 nM.

`CC(C)(O)COc1ccc2c(C(=O)NC3CC4(C3)CC(Oc3nc(OCCN)ncc3C(N)=O)C4)cnn2c1C1CC1` (centres unmarked) [Example 306, N-(6-((2-(2-aminoethoxy)-5-carbamoylpyrimidin-4-yl)oxy)spiro[3.3]heptan-2-yl)-7-cyclopropyl-6-(2-hydroxy-2-methylpropoxy)pyrazolo[1,5-a]pyridine-3-carboxamide] displayed an IC50 of 50 to 250 nM.

`NC(=O)c1cccnc1O[C@H]1CC2(C[C@H](NC(=O)c3cnn4cc(OC5CCS(=O)(=O)CC5)ccc34)C2)C1` (stereo partly drawn) [Example 339, N-((aR)-6-((3-carbamoylpyridin-2-yl)oxy)spiro[3.3]heptan-2-yl)-6-((1,1-dioxidotetrahydro-2H-thiopyran-4-yl)oxy)pyrazolo[1,5-a]pyridine-3-carboxamide] showed an IC50 of 5 to 50 nM.

Molecule `NC(=O)c1ccccc1O[C@H]1CC2(C[C@H](NC(=O)c3cnc4cc(OCCC(F)(F)F)ccn34)C2)C1` (stereo partly drawn) [Example 18, N-[(aR)-6-(2-carbamoylphenoxy)spiro[3.3]heptan-2-yl]-7-(3,3,3-trifluoropropoxy)imidazo [1,2-a]pyridine-3-carboxamdie] yielded a half-inhibitory concentration (IC50) of less than 5 nM.

For the molecule `CS(=O)(=O)CCCOc1ccc2c(C(=O)N[C@H]3CC4(C3)C[C@H](Oc3ncccc3C(N)=O)C4)cnn2c1C1CC1` (stereo partly drawn) [Example 352, N-((aR)-6-((3-carbamoylpyridin-2-yl)oxy)spiro[3.3]heptan-2-yl)-7-cyclopropyl-6-(3-(methylsulfonyl)propoxy)pyrazolo[1,5-a]pyridine-3-carboxamide], the half-inhibitory concentration (IC50) was in the range of 5 to 50 nM.

Staying with this test, now noted: read-out: ROCK2 Activity (ROCK2 IC50); 5 μM ATP, 1.5 μM peptide substrate, pH 7.5.
Consider `COc1ccc(-n2ncc(C(=O)N[C@H]3CC4(C3)C[C@H](Oc3ncccc3C(N)=O)C4)c2C)cn1` (some centres unmarked) [Example 400], for which the IC50 fell in the range of 5 to 50 nM.

For `COc1ccc2c(c1)CCc1c-2nn(C)c1C(=O)NC1CC2(C1)CC(Oc1ncccc1C(N)=O)C2` [Example 381, N-((aR)-6-((3-carbamoylpyridin-2-yl)oxy)spiro[3.3]heptan-2-yl)-7-methoxy-2-methyl-4,5-dihydro-2H-benzo[g]indazole-3-carboxamide], the 50% inhibitory concentration (IC50) is 250 to 2500 nM.

Regarding `NC(=O)c1cccnc1OC1CC2(CC(NC(=O)c3nn(CCC(F)(F)F)c4cc(OCCC(F)(F)F)ccc34)C2)C1` [Example 117, N-((aR)-6-((3-carbamoylpyridin-2-yl)oxy)spiro[3.3]heptan-2-yl)-6-(3,3,3-trifluoropropoxy)-1-(3,3,3-trifluoropropyl)-1H-indazole-3-carboxamide, trifluoroacetate], the IC50 was 5 to 50 nM.
